{"source": "paper PMC6260619", "about": "“Selective Cytotoxicity of Goniothalamin against Hepatoblastoma HepG2 Cells” (Molecules, 2011)", "assay_type_in_all_cases": "cell-based, human", "key": {"HepG2 cells [1]": {"test_system": "HepG2 cells", "assay": "MTT cytotoxicity assay, HepG2", "conditions": "for IC50: read-out: IC50 from MTT", "description": "(§1) HepG2 and Chang cells were plated at 1 × 10^4 cells/well by adding 200 μL of a 5 × 10^4 cells/mL suspension to each well of a 96-well tissue culture plate. The plate was incubated for a sufficient time to assure attachment and 40% to 60% confluency. […] The last row was left as an untreated control. The plates were incubated at 37 °C, 5% CO2, for 24, 48 and 72 hours, respectively. After incubation with compounds, the media was aspirated off and replaced with fresh media. Then, MTT solution (20 μL) for a total volume of 200 μL was added in every well and incubated for 4 to 6 hours at 37 °C with 5% CO2. After that, MTT-containing medium was removed gently and replaced with DMSO (200 μL per well) to mix the formazan crystals until dissolved. The plates were read on microtiter plate reader at 570 nm. For each compound tested, the IC50 (concentration of drug needed to inhibit cell growth by 50%) is generated from the dose-response curves for each cell line."}, "Chang cells [2]": {"test_system": "Chang cells", "assay": "MTT cytotoxicity assay, Chang", "conditions": "for IC50: read-out: IC50 from MTT", "description": "as §1"}, "HepG2 cells [3]": {"test_system": "HepG2 cells", "assay": "LDH leakage assay, HepG2", "conditions": "for IC50: Homo sapiens, read-out: IC50 from LDH", "description": "(§2) Measurement of LDH activity is another indicator of cell viability through evaluation of the cell membrane permeability. The enzyme activity is measured externally, as it leaks from dead cells which lose their membrane integrity. LDH leakage detection is based on the loss of NADH due to its oxidation to NAD^+, resulting in the conversion of pyruvate to lactate. Untreated cells should retain LDH in their cells and have minimal loss over the time of the assay. Triton X-100-treated cells that give the maximum loss of LDH were used as the positive control in this assay.\n(§3) To determine the effect of goniothalamin on membrane permeability in HepG2 and Chang cell lines, a lactate dehydrogenase (LDH) release assay was used. The cells were seeded in 96-well culture plates at a density of 2 × 10^4 cells/well in 100 μL volume and allowed to grow for 18 hours before treatment. After treatment, the plates were incubated for 24, 48 and 72 hours, respectively. Then, the supernatant (40 μL) was transferred to a new 96 well to determine LDH release and 6% triton X-100 (40 μL) was added to the original plate for determination of total LDH. An aliquot of 0.1 M potassium phosphate buffer (100 μL, pH 7.5) containing 4.6 mM pyruvic acid was mixed to the supernatant using repeated pipetting. Then, 0.1 M potassium phosphate buffer (100 μL, pH 7.5) containing 0.4 mg/mL reduced β-NADH was added to the wells. The kinetic changes were read for 1 min using ELISA microplate reader in absorbance at wavelength 340 nm. This procedure was repeated with 40 μL of the total cell lysate to determine total LDH U/well. A change of 0.001 absorbance units/min is equivalent to 1 U/L of LDH activity. The percentage of LDH release was determined by dividing the LDH released into the media by the total LDH following cell lysis in the same well."}, "Chang cells [4]": {"test_system": "Chang cells", "assay": "LDH leakage assay, Chang", "conditions": "for IC50: read-out: IC50 from LDH", "description": "as §2, §3"}, "Chang cells [5]": {"test_system": "Chang cells", "assay": "Cell cycle PI analysis by flow cytometry, Chang", "description": "The effect of goniothalamin on the cell cycle distribution of non-malignant Chang cells was also assessed. […] Accordingly, goniothalamin induced a marked apoptosis in a time-dependent manner at IC50 concentrations. As expected, the increase in the apoptotic population was associated with a concomitant enlargement of the pre-phase population, as observed in cell cycle analysis.\nThe treated cells were trypsinized and washed with PBS. After centrifugation, the supernatant was removed. Then, 1 × 10^6 cells were harvested and fixed in ice-cold ethanol (70%). The fixed cells were centrifuged at high speed (180 × g) for 10 minutes to adequately pellet down the cells that were suspended in the ethanol. The pellet was washed by the ice-cold PBS and then centrifuged again at 180 × g for 10 minutes. The final pellet was resuspended with 1 mL of RNase and incubated at 37 °C for 30 minutes. At the end of incubation, DNA binding dye PI (1 mg/mL) was added to give a final concentration of 50 µg/mL. The mixture was incubated at room temperature for 10 min in the dark. Data acquisition and analysis were performed in by flow cytometry FACS Calibur flow cytometer (Becton Dickinson, Franklin Lakes, NJ, USA) using CellQuest 3.3 software."}, "HepG2 cells [6]": {"test_system": "HepG2 cells", "assay": "Trypan blue dye exclusion viable cell count, HepG2", "description": "As supported by MTT and LDH results, goniothalamin inhibited cell proliferation towards HepG2 in a time- and dose-dependent manner as shown in the BrdU incorporation ELISA method. The effects of goniothalamin on HepG2 and Chang cell growth were also analyzed by viable cell counts using trypan blue dye exclusion assay for 24, 48 and 72 hours after treatment with different doses of goniothalamin. […] The ratio between viable cell numbers in goniothalamin-treated cells and control cells was reported as the Viablity Index (VI, Figure 5A and Figure 5B).\nA half mL aliquot of cell suspension (obtained from treated and non-treated HepG2 and Chang cells), was mixed with 0.5 mL of 0.4% trypan blue dye and left for 5 min at room temperature). The cells were counted using the hemacytometer and the percentage of dead cells was determined."}, "[7]": {"conditions": "24h, at IC50 (goniothalamin 79.10 µM; doxorubicin 0.83 µM)"}, "[8]": {"conditions": "48h, at IC50 (goniothalamin 63.75 µM; doxorubicin 0.41 µM)"}, "[9]": {"conditions": "72h, at IC50 (goniothalamin 35.01 µM; doxorubicin 0.28 µM)"}}, "note": "Several values for one entry are separate records, joined by “and”; a condition that tells them apart may be missing. Equal entries are not always repeated.", "data": [{"smiles": "O=C1C=CC[C@H](/C=C/c2ccccc2)O1", "note": "[Goniothalamin, 5-hydroxy-7-phenylhepta-2,6-dienoic acid lactone]", "values": [{"measurement": "IC50", "setting": "HepG2 cells [1]; HepG2, 72 hours", "value": "4.6 µM and 4.63 µM"}, {"measurement": "IC50", "setting": "HepG2 cells [1]; Homo sapiens, HepG2, 24 h", "value": 9.2, "unit": "µM"}, {"measurement": "IC50", "setting": "HepG2 cells [1]; Homo sapiens, HepG2, 48 h", "value": 8.3, "unit": "µM"}, {"measurement": "selectivity index (SI)", "setting": "HepG2 cells [1]; IC50 for normal cell line (Chang)/IC50 for cancerous cell line (HepG2), MTT, 72 hours", "value": 7.6}, {"measurement": "IC50-GTN / IC50-Doxo", "setting": "HepG2 cells [1]; MTT, 72 hours, value fits HepG2 IC50s", "value": 4.4}, {"measurement": "decrease of cell growth vs untreated control", "setting": "Chang cells [2]; 37.5 μM, 24 hours", "value": 39, "unit": "%"}, {"measurement": "decrease of cell growth vs untreated control", "setting": "Chang cells [2]; 37.5 μM, 48 hours", "value": 44, "unit": "%"}, {"measurement": "decrease of cell growth vs untreated control", "setting": "Chang cells [2]; 37.5 μM, 72 hours", "value": 54, "unit": "%"}, {"measurement": "decrease of cell growth vs untreated control", "setting": "Chang cells [2]; 75 μM, 24 hours", "value": "approximately 49%"}, {"measurement": "decrease of cell growth vs untreated control", "setting": "Chang cells [2]; 75 μM, 48 hours", "value": "~53", "unit": "%"}, {"measurement": "decrease of cell growth vs untreated control", "setting": "Chang cells [2]; 75 μM, 72 hours", "value": "~63", "unit": "%"}, {"measurement": "IC50", "setting": "Chang cells [2]; 72 hours", "value": 35, "unit": "µM"}, {"measurement": "IC50", "setting": "Chang cells [2]; Homo sapiens, 24 h", "value": 79.1, "unit": "µM"}, {"measurement": "IC50", "setting": "Chang cells [2]; Homo sapiens, 48 h", "value": 63.8, "unit": "µM"}, {"measurement": "IC50", "setting": "Chang cells [2]; Homo sapiens, 72 h", "value": 35, "unit": "µM"}, {"measurement": "death percentage compared to Triton X-100-treated cells", "setting": "HepG2 cells [3]; HepG2, 4.6 µM, 72 hours", "value": 50, "unit": "%"}, {"measurement": "LDH leakage", "setting": "HepG2 cells [3]; HepG2, 9.4 µM, 72 hours, relative to Triton X-100 maximum", "value": 62, "unit": "%"}, {"measurement": "LDH leakage", "setting": "HepG2 cells [3]; HepG2, 37.5 µM, 24 hours", "value": 60, "unit": "%"}, {"measurement": "LDH leakage", "setting": "HepG2 cells [3]; HepG2, 37.5 µM, 48 hours", "value": 70, "unit": "%"}, {"measurement": "LDH leakage", "setting": "HepG2 cells [3]; HepG2, 37.5 µM, 72 hours", "value": 70, "unit": "%"}, {"measurement": "LDH leakage", "setting": "HepG2 cells [3]; HepG2, 150 µM, 24 hours", "value": 80, "unit": "%"}, {"measurement": "LDH leakage", "setting": "HepG2 cells [3]; HepG2, 150 µM, 48 hours", "value": 86, "unit": "%"}, {"measurement": "LDH leakage", "setting": "HepG2 cells [3]; HepG2, 150 µM, 72 hours", "value": 93, "unit": "%"}, {"measurement": "IC50", "setting": "HepG2 cells [3]; HepG2, 24 hours", "value": 13.4, "unit": "µM"}, {"measurement": "IC50", "setting": "HepG2 cells [3]; HepG2, 48 hours", "value": 8.29, "unit": "µM"}, {"measurement": "IC50", "setting": "HepG2 cells [3]; HepG2, 72 hours", "value": 5.2, "unit": "µM"}, {"measurement": "increase in LDH leakage", "setting": "Chang cells [4]; Chang, 4.7 µM, 72 hours", "value": 19, "unit": "%"}, {"measurement": "loss of viability (LDH leakage)", "setting": "Chang cells [4]; Chang, 37.5 µM", "value": "≤ 52", "unit": "%"}, {"measurement": "toxicity (LDH leakage)", "setting": "Chang cells [4]; Chang, 2.3, 4.7 or 9.4 µM, on completion of incubation", "value": "no significant toxicity"}, {"measurement": "IC50", "setting": "Chang cells [4]; Chang, 72 hours", "value": 32.5, "unit": "µM"}, {"measurement": "IC50", "setting": "Chang cells [4]; Homo sapiens, 24 h, Chang, 24 hours", "value": 69.6, "unit": "µM"}, {"measurement": "IC50", "setting": "Chang cells [4]; Homo sapiens, 48 h, Chang, 48 hours", "value": 55.1, "unit": "µM"}, {"measurement": "IC50", "setting": "Chang cells [4]; Homo sapiens, 72 h, Chang, 72 hours", "value": 32.5, "unit": "µM"}, {"measurement": "G0/G1", "setting": "Chang cells [5]; [7]", "value": "55.08 ± 3.60", "unit": "%"}, {"measurement": "G2+M", "setting": "Chang cells [5]; [7]", "value": "14.89 ± 5.53", "unit": "%"}, {"measurement": "S", "setting": "Chang cells [5]; [7]", "value": "12.65 ± 2.79", "unit": "%"}, {"measurement": "SubG0/G1", "setting": "Chang cells [5]; [7]", "value": "17.38 ± 7.29", "unit": "%"}, {"measurement": "G0/G1", "setting": "Chang cells [5]; [8]", "value": "58.68 ± 9.45", "unit": "%"}, {"measurement": "G2+M", "setting": "Chang cells [5]; [8]", "value": "2.5 ± 5.89", "unit": "%"}, {"measurement": "S", "setting": "Chang cells [5]; [8]", "value": "5.82 ± 0.16", "unit": "%"}, {"measurement": "SubG0/G1", "setting": "Chang cells [5]; [8]", "value": "33.00 ± 3.40", "unit": "%"}, {"measurement": "G0/G1", "setting": "Chang cells [5]; [9]", "value": "11.60 ± 0.07", "unit": "%"}, {"measurement": "G2+M", "setting": "Chang cells [5]; [9]", "value": "2.5 ± 0.44", "unit": "%"}, {"measurement": "S", "setting": "Chang cells [5]; [9]", "value": "4.91 ± 0.13", "unit": "%"}, {"measurement": "SubG0/G1", "setting": "Chang cells [5]; [9]", "value": "80.99 ± 0.64", "unit": "%"}, {"measurement": "viability (cell count, trypan blue)", "setting": "HepG2 cells [6]; HepG2, 2.3 µM", "value": "significantly inhibited"}, {"measurement": "Viability Index", "setting": "HepG2 cells [6]; HepG2, at IC50, 72 hours", "value": "52 ± 1.73", "unit": "%"}, {"measurement": "inhibition at 4.6 µM", "setting": "HepG2 cells [6]; Homo sapiens, HepG2, 4.6 µM, 72 hours, read-out: inhibition of cell growth (trypan blue)", "value": 52, "unit": "%"}, {"measurement": "inhibition at 8.3 µM", "setting": "HepG2 cells [6]; Homo sapiens, HepG2, 8.3 µM, 48 hours, read-out: inhibition of cell growth (trypan blue)", "value": 64, "unit": "%"}, {"measurement": "inhibition at 9.2 µM", "setting": "HepG2 cells [6]; Homo sapiens, HepG2, 9.2 µM, 24 hours, read-out: inhibition of cell growth (trypan blue)", "value": 79, "unit": "%"}]}]}
